Assay results reported in BindingDB's records for patent US20250059204 (Aurigene Oncology, 2025).

Biological target: Histone acetyltransferase KAT6A (UniProt Q92794)
Assay: KAT6A Biochemical Assay
From the text: TR-FRET is homogeneous proximity assay where Europium-labelled anti-acetyl lysine antibody binds to the acetylated substrate labelled with biotin which in turn binds to streptavidin labelled APC fluorescence acceptor. Europium can transfer energy to APC in the complex and the interaction of two dye-labelled binding partners is detected by the energy transfer between a donor and an acceptor dye, and the subsequent light emission by the acceptor dye. KAT6A transfer an acetyl group from acetyl CoA to lysine amino acids of histones/target proteins. Typically, 5 μL of human-KAT6A (MYST domain 507-778 aa) in assay buffer (100 mM Tris HCl (pH 7.8), 15 mM NaCl, 1 mM EDTA, 0.01% Tween-20, 0.02% BSA, 1 mM DTT) is added to 384-well plate containing 5 μL of selected test compound in final 1% DMSO, serially diluted in 1:3 in an 8-10-point titration. The selected compound of the present invention and enzyme are incubated for 30 min at room temperature. Next, 5 μL of substrate mix containing histone H4 peptide and acetyl-CoA in assay buffer is added to the plate. The final concentrations of H4 peptide and acetyl-CoA are 200 nM and 600 nM respectively. […] The plate is further incubated for 45 min at room temperature and is read in TR-FRET mode (Ex:340 nm; Em: 615 nm and 665 nm) on a plate reader.

Histone acetyltransferase KAT6A, sequence (Q92794 whole entry): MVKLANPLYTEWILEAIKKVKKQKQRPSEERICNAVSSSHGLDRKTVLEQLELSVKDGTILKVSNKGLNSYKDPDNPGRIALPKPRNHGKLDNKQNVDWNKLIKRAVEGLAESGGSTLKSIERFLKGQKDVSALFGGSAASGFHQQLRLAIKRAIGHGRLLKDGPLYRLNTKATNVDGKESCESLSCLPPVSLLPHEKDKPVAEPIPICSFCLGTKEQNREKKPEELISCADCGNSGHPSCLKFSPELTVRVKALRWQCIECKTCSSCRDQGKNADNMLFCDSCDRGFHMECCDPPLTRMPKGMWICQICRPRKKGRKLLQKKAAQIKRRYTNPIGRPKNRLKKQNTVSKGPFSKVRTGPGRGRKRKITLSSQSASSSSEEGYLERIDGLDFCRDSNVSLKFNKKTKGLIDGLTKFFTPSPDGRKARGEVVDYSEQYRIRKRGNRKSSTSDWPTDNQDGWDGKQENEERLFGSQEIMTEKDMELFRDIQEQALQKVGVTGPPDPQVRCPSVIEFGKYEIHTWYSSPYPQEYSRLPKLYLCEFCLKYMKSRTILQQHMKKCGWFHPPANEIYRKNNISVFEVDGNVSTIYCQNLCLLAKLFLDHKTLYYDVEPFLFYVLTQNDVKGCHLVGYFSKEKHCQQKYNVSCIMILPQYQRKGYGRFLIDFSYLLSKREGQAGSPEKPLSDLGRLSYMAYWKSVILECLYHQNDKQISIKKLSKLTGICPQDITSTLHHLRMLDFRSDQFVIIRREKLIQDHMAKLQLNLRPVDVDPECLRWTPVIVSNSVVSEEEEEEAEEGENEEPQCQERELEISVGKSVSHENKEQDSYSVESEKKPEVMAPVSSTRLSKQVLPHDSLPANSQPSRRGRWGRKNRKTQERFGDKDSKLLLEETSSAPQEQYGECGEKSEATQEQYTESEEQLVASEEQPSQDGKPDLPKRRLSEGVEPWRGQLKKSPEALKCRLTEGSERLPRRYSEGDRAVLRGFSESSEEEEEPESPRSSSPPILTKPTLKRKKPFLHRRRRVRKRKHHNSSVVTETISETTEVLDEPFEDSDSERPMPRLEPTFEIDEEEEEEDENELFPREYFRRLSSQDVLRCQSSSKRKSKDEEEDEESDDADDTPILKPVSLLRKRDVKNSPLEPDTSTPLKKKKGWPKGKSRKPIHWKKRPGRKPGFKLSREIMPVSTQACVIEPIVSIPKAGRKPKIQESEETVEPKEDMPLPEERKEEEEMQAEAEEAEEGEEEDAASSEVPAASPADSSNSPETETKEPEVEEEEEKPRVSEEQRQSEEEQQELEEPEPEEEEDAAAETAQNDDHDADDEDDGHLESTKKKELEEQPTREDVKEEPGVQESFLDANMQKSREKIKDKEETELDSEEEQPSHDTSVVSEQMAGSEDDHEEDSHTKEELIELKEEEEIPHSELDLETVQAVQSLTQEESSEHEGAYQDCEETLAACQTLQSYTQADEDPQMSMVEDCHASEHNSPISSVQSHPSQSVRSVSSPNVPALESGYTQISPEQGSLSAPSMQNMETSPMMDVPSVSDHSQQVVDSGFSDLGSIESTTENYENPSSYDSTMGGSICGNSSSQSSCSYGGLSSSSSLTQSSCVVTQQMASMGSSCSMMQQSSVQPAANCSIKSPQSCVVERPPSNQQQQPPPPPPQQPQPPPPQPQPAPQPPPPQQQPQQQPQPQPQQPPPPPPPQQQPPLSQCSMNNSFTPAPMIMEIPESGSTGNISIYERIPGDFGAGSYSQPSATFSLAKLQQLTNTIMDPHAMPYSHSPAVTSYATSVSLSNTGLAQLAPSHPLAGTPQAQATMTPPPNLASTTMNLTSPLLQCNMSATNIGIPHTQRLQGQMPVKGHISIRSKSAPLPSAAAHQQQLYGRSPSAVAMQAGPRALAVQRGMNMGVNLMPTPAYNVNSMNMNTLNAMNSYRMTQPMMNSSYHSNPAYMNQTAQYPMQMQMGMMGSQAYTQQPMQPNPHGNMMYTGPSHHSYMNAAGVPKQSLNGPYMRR

IC50	SMILES
43 nM	COc1cccc(OC)c1S(=O)(=O)Nc1noc2cc(Cn3cccn3)c3c(c12)OC(C)(C)C3 [US20250059204, Compound 56]
156 nM	COc1cccc(OC)c1S(=O)(=O)Nc1noc2cc(-c3cscc3C)c3c(c12)OCC3 [US20250059204, Compound 14]
